Test results: US20020138856A1, “Compositions and methods useful for treatment of depressive disorder based on an animal model” (Northwestern University, priority 1998, published 2002)
“Also recorded” adds a separate entry of the source.

Tests used:
WLI rats = assay: Forced swim test (FST) immobility before and after drug administration, WLI rats; assay type: in vivo, rat
Excerpt: (§1) FIG. 6 is a graph depicting the immobility in the forced swim test of 14 week-old animals before and after administration of either desipramine, fluoxetine, or water in WMI and WLI animals. Shaded squares and circles indicate immobility after treatment, unshaded squares and circles indicate immobility before treatment, squares indicate WMI animals, and circles indicate WLI animals.
(§2) The main test of behavior in the rats of the invention is the FST. The general parameters governing this test are as follows, it being understood that variations of the test are permissible within acceptable bounds. The test utilizes a glass water tank 30 cm in diameter and 45 cm tall wherein the water level is 15 cm from the top and the water temperature is 25° C. The procedure for the test is adapted from Porsolt et al. and Detke et al., as described in Detke et al., 1995, Psychopharm. 121:66-72). Rats are individually placed in the water tank for 15 minutes and are then removed from the tank and returned to their cages. […] This 5 minute test session is recorded on videotape. The performance of the rat on the tape is analyzed and subsequently scored using the scoring system developed by Detke et al. (1995, Psychopharm. 121:66-72) by a trained observer, who is unaware as to the various treatment conditions of the rats. […] The following behaviors are recorded: immobility, swimming, and climbing. The rats are scored at 5 second intervals, thus, there are 12 intervals per minute sampled. […] By way of example, if a rat was scored as immobile at 13 of the […], the FST score would be 13. […]
(§3) The WMI and WLI rats of the invention are useful for screening compounds effective for modulation, preferably, alleviation of depression and other behavioral and depressive disorders. […] WMI and WLI rats are administered a test compound or a placebo at a dosage, a route of administration and for a period of time which is determined by the artisan skilled in such procedures, following standard protocols such as those described, for example, in Remington's Pharmaceutical Sciences, Mack Publishing Co., Easton, Pa., 1985. […]

WKY rats = details: chronic and subacute treatment (three times per day between first and third swim); cited from earlier work
WMI rats = assay: Forced swim test (FST) immobility before and after drug administration, WMI rats; assay type: in vivo, rat; details: for effect on alleviating depression (FST immobility): desipramine administered three times within 24 hours
Excerpt: as §1, §2, §3

| Structure (SMILES) | effect on alleviating depression (FST immobility) (WLI rats) | immobility time in the forced swim test after administration (WLI rats; 14 week-old, before treatment about nine 5-second intervals, change not significant, FIG. 6) | effect on depressive behavior (immobility, struggling in forced swim test) (WKY rats) | immobility time in the forced swim test after administration (WMI rats; 14 week-old, before treatment about nineteen 5-second intervals, FIG. 6) | effect on alleviating depression (FST immobility) (WMI rats) |
| --- | --- | --- | --- | --- | --- |
| CNCCCN1c2ccccc2CCc2ccccc21 [Desipramine, desipramine] | do not respond; also recorded: resistant to treatment | about six | decreased the depressive behavior | about five | responsive; also recorded: effectively alleviated depression |
| CNCCC(Oc1ccc(C(F)(F)F)cc1)c1ccccc1 (centres unmarked) [Fluoxetine, fluoxetine] | virtually no effect |  |  |  | virtually no effect |
| CN(C)CCCN1c2ccccc2CCc2ccccc21 [imipramine] |  |  | decreased the depressive behavior |  |  |
